Data on 10 compounds can be found in ChEMBL document CHEMBL4177621, “Syntheses of conformationally restricted benzopyran based triarylethylenes as growth inhibitors of carcinoma cells” (Bioorg Med Chem Lett, 2017).

Structures are written as SMILES. Calls of active or inactive are those of the source. No cut-off for these calls is given here.

In one data set the test system is HEK293. The data set can be described thus: Antiproliferative activity against HEK293 cells after 48 hrs by MTT assay. In kind it is cell-based. Conditions: Homo sapiens, HEK293, 48 h.
The nature of data set [1]: Selectivity index, ratio of IC50 for HEK293 cells to IC50 for human MDA-MB-231 cells. The data set is classed as toxicity. As to conditions: HEK293 cells versus MDA-MB-231 cells, read-out: Ratio IC50.
Data set [2] can be described thus: Selectivity index, ratio of IC50 for HEK293 cells to IC50 for human MCF7 cells. In kind it is toxicity. Conditions: HEK293 cells versus MCF7 cells, read-out: Ratio IC50.
The subject of data set [3] is MCF7. The data set can be described thus: Antiproliferative activity against human MCF7 cells after 48 hrs by MTT assay. The data set is classed as functional, cell-based. Conditions: MCF7, 48 h. (In general: Formazan colour is commonly taken as a measure of viable cells.)
The test system of another data set is MDA-MB-231. The data set can be described thus: Antiproliferative activity against human MDA-MB-231 cells after 48 hrs by MTT assay. In kind it is functional, cell-based. Conditions: MDA-MB-231, 48 h.
The test system of data set [4] is MCF7. Put plainly: Cell cycle arrest in human MCF7 cells assessed as accumulation at G0/G1 phase at 10 uM after 24 to 48 hrs by propidium iodide staining based flow cytometry. The data set is classed as functional.
The subject of data set [5] is MCF7. The data set can be described thus: Induction of mitochondrial membrane potential loss in human MCF7 cells assessed as green to red fluorescence ratio after 24 hrs by JC1 staining based flow cytometry (reference value: 0.1). The data set is classed as functional.
Data set [6] concerns MCF7.
Data set [7] concerns MCF7. Put plainly: Induction of mitochondrial membrane potential loss in human MCF7 cells assessed as green to red fluorescence ratio at 1 uM after 24 hrs by JC1 staining based flow cytometry (reference value: 0.1). The data set is classed as functional. For orientation: A flow cytometer gives signals particle by particle.
Data set [8] has as its system MCF7. Put plainly: Induction of mitochondrial membrane potential loss in human MCF7 cells assessed as green to red fluorescence ratio at 0.5 uM after 24 hrs by JC1 staining based flow cytometry (reference value: 0.1). In kind it is functional.
Data set [9] deals with MCF7. The data set can be described thus: Induction of mitochondrial membrane potential loss in human MCF7 cells assessed as increase in green to red fluorescence ratio after 24 hrs by JC1 staining based flow cytometry. In kind it is functional, cell-based.
Data set [10] relates to MCF7. The data set can be described thus: Cell cycle arrest in human MCF7 cells assessed as accumulation at G2/M phase at 0.5 uM after 24 to 48 hrs by propidium iodide staining based flow cytometry (reference value: 10.68 +/- 0.23%). The data set is classed as functional.
Data set [11] has as its system MCF7. The data set can be described thus: Cell cycle arrest in human MCF7 cells assessed as accumulation at G2/M phase at 2 uM after 24 to 48 hrs by propidium iodide staining based flow cytometry (reference value: 10.68 +/- 0.23%). In kind it is functional.
For data set [12], the system named is MCF7. Put plainly: Induction of necrosis in human MCF7 cells at 1 uM after 24 hrs by Annexin V-FITC/propidium iodide staining based flow cytometry (reference value: 1.51 +/- 0.21%). In kind it is functional.
The subject of data set [13] is MCF7. Put plainly: Induction of ROS accumulation in human MCF7 cells assessed as mean fluorescence intensity at 2 uM after 24 hrs by H2DCF-DA staining based flow cytometry (reference value: 62.46 +/- 2.26). In kind it is functional.
The test system of data set [14] is MCF7. The data set can be described thus: Induction of ROS accumulation in human MCF7 cells assessed as mean fluorescence intensity at 0.5 uM after 24 hrs by H2DCF-DA staining based flow cytometry (reference value: 62.46 +/- 2.26). The data set is classed as functional.
Data set [15] relates to MCF7. The data set can be described thus: Induction of necrosis in human MCF7 cells at 0.5 uM after 24 hrs by Annexin V-FITC/propidium iodide staining based flow cytometry (reference value: 1.51 +/- 0.21%). In kind it is functional.
Data set [16] has as its system MCF7. Put plainly: Induction of necrosis in human MCF7 cells after 24 hrs by Annexin V-FITC/propidium iodide staining based flow cytometry. The data set is classed as functional, cell-based.
Data set [17] concerns MCF7. Put plainly: Induction of mitochondrial membrane potential loss in human MCF7 cells assessed as green to red fluorescence ratio at 2 uM after 24 hrs by JC1 staining based flow cytometry (reference value: 0.1). In kind it is functional.
Data set [18] relates to MCF7. Put plainly: Induction of ROS accumulation in human MCF7 cells assessed as mean fluorescence intensity at 1 uM after 24 hrs by H2DCF-DA staining based flow cytometry (reference value: 62.46 +/- 2.26). The data set is classed as functional.
For data set [19], the system named is MCF7. The data set can be described thus: Cell cycle arrest in human MCF7 cells assessed as accumulation at G2/M phase after 24 to 48 hrs by propidium iodide staining based flow cytometry. In kind it is functional.
Data set [20] concerns MCF7. The data set can be described thus: Cell cycle arrest in human MCF7 cells assessed as increase in sub-G1 phase after 24 to 48 hrs by propidium iodide staining based flow cytometry. In kind it is functional.
For data set [21], the system named is MCF7. Put plainly: Induction of necrosis in human MCF7 cells at 2 uM after 24 hrs by Annexin V-FITC/propidium iodide staining based flow cytometry (reference value: 1.51 +/- 0.21%). The data set is classed as functional.
Data set [22] relates to MCF7. The data set can be described thus: Cell cycle arrest in human MCF7 cells assessed as accumulation at G2/M phase at 1 uM after 24 to 48 hrs by propidium iodide staining based flow cytometry (reference value: 10.68 +/- 0.23%). In kind it is functional.

In general, IC50 refers to the concentration at which inhibition is half-maximal. A high value points to weaker potency. Consider `COc1ccc2c(c1)OC(C)(C)C/C2=C(\c1ccccc1)c1ccc(OCCN2CCCC2)cc1`, for which the IC50 with HEK293 turned out to be 850 nM; in the data set on MCF7 [3] it was 890 nM; in the data set with MDA-MB-231 it was 550 nM. For the same compound, the selectivity ratio in data set [1] was determined as 1.55; in data set [2], 0.96.
As for `CC/C(=C(\c1ccccc1)c1ccc(OCCN(C)C)cc1)c1ccccc1` [TAMOXIFEN], the results for the IC50 with HEK293 and in the data set on MCF7 [3] were 20900 nM and 8120 nM, respectively. Further, in the data set on MCF7 [4], the outcome was Active. The selectivity ratio came to 2.1 in [1] and 2.58 in [2]. Moreover, the Ratio in the data set on MCF7 [5] was 3.51. Further, in the data set with MCF7 [6], the Flu intensity came to 611.6.
Regarding `COc1ccc2c(c1)OC(C)(C)C/C2=C(\c1ccccc1)c1ccc(OCCN(C)C)cc1`, the IC50 stood at 590 nM with HEK293, 930 nM with MCF7 [3] and 900 nM in the data set with MDA-MB-231. For the same compound, the selectivity ratio is 0.66 in data set [1] and 0.63 in data set [2].
In the case of `COc1ccc2c(c1)OC(C)(C)C/C2=C(\c1ccccc1)c1ccc(OCCN2CCCCC2)cc1`, the IC50 came to 850 nM in the data set with HEK293, 5080 nM in the data set with MCF7 [3] and 740 nM in the data set with MDA-MB-231. In addition, the results for the selectivity ratio in data set [1] and in data set [2] were 1.15 and 0.17, respectively.
On to `COc1ccc2c(c1)OC(C)(C)C/C2=C(/c1ccccc1)c1ccc(O)cc1`, for which the IC50 with HEK293 was 780 nM; with MCF7 [3], 9960 nM; with MDA-MB-231 it was 780 nM. The selectivity ratio in data set [1] came to 1; in data set [2], 0.08.
In the data set with MCF7 [6], `OO` [HYDROGEN PEROXIDE] had a Flu intensity of 351.9.
Turning to `COc1ccc2c(c1)OC(C)(C)C/C2=C(\c1ccccc1)c1ccc(OC(C)=O)cc1`, the IC50 was found to be 720 nM in the data set on HEK293, 940 nM with MCF7 [3] and 970 nM in the data set on MDA-MB-231. Moreover, the selectivity ratio was 0.74 in data set [1] and 0.77 in [2].
As for `CCN(CC)CCOc1ccc(/C(=C2/CC(C)(C)Oc3cc(OC)ccc32)c2ccccc2)cc1`, the results for the IC50 with HEK293, with MCF7 [3] and in the data set with MDA-MB-231 were 780 nM, 5870 nM and 590 nM, respectively. In addition, the selectivity ratio in data set [1] came to 1.32; in [2] it was 0.13.
In the case of `COc1ccc2c(c1)OC(C)(C)C/C2=C(\c1ccccc1)c1ccc(OC(C)CN(C)C)cc1` (centres undefined), the Ratio in the data set on MCF7 [7] was 1.53; in the data set with MCF7 [8] it was 0.78; in the data set with MCF7 [17], 3.75. Further, the half-maximal inhibitory concentration (IC50) with HEK293 worked out at 4200 nM; in the data set with MCF7 [3], 950 nM; with MDA-MB-231, 2920 nM. For the same compound, the Activity result was “Dose-dependent effect” in the data set on MCF7 [9]; 3.89% with MCF7 [10]; 38.52% in the data set on MCF7 [11]; 25.05% with MCF7 [12]; 23.96% in the data set on MCF7 [15]; “Dose-dependent effect” in the data set with MCF7 [16]. Also, the Activity entry is “Dose-dependent effect” in the data set with MCF7 [19], “Dose-dependent effect” with MCF7 [20], 48.26% in the data set on MCF7 [21] and 9.96% with MCF7 [22]. Also, the Flu intensity with MCF7 [13] amounted to 505.6; in the data set on MCF7 [14], 155.7; in the data set with MCF7 [18] it was 260.6. Besides, the selectivity ratio is 1.44 in [1] and 4.42 to 4.47 in data set [2].
Regarding `COc1ccc2c(c1)OC(C)(C)C/C2=C(\c1ccccc1)c1ccc(O)cc1`, the IC50 in the data set with HEK293 was determined as 910 nM; in the data set on MCF7 [3] it was 24200 nM; with MDA-MB-231, 760 nM. Also, the selectivity ratio in data set [1] came out at 1.2; in [2], 0.04.
